Assay results published in patent publication US7271158B2, “Treatment of rumen acidosis with α-amylase inhibitors” (Pfizer Inc., priority 2000, dated 2007).

Legend:
[1] = test system: acute acidosis after carbohydrate challenge in cannulated cattle; assay: Acute acidosis model (carbohydrate challenge); format: in vivo, Holstein dried off cows and heifers
From the text: Acute Acidosis Model: Assessment of Acarbose [table] Procedures: Ten Holstein dried off cows and heifers (initial weight 740±27 (SE) kg, range=606–870 kg) were group-housed during the pre-treatment period and individually housed during the experimental period. Animals were moved to a head-gate during sample collection, treatment and first challenge. Subsequently, they were sampled and dosed in their individual pens. Animals were offered approximately 5 kg alfalfa hay, 16 kg silage, 6 kg concentrate and 0.5 kg straw daily in a total mixed ration offered in two feedings (60:40 concentrate:roughage diet ). They were bedded on straw only during the pre-treatment period. Water was provided ad libitum. Animals were adapted to the lactating ration for at least 10 days before treatments were administered. From a group of 6 dry cows and 5 non-lactating heifers, ten were selected based on previous exposure to challenge and general health. Animals were paired by body weight and were randomly assigned to control and acarbose treatment groups within pair, ensuring similar distribution of heifers and cows. On days 0–6 of treatment, animals received 1.07 mg acarbose/kg dissolved in ˜200 mL water through the rumen cannula just before AM (07:30) and PM (16:00) feedings. Treatment 1 animals received an equivalent amount of water only. On days 7 and 8, each animal was administered a challenge through the cannula. When pH reached ˜4.5 and there was evidence of L-lactate production, acute acidosis was considered to be induced. When an animal experienced acute acidosis by these criteria, rumen contents were removed and the rumen inoculated with rumen contents from a donor animal. Animals were weighed on days—1 and 5 for calculation of acarbose dosing and challenge amounts. To measure rumen fluid pH animals were fitted with a harness to hold an automatic pH data recording system. The rumen pH was recorded every 10 min during the days of challenge until an animal experienced acute acidosis. Rumen fluid samples were taken (˜50 mL) from the rumen cannula through a filtered sampling tube. […] The pH was measured immediately. […] In some cases the sample was filtered through gauze before pH measurement and acid treatment. This mixture was centrifuged for 10 min at 12000 g. One aliquot of the supernatant was removed for immediate lactate analysis, one frozen for subsequent lactate analysis using Sigma kit 826. A third aliquot was transferred to an auto-sampler vial for subsequent VFA analysis. An initial determination of L-lactate was made during the study to establish acidotic status using Sigma kit 735. Subsequently D and L-lactate were re-measured for statistical analysis as described below. VFA's were measured on a Hewlett Packard 6890 series gas chromatograph fitted with an auto-sampler and flame ionisation detector. The acids were resolved on a SGE Ltd. 25 metre BP21 column (0.33 mm O.D., 0.22 mm I.D. 0.25 um film thickness). Nitrogen was used as the carrier gas with a flow rate of 1.9 ml/min. The oven temperature was 165° C., and injection ports and detectors were held at 250° C. Concentrations were calculated by using crotonic acid as an internal standard, and the system was calibrated using a standard solution containing acetic, propionic, butyric, iso-valeric and n-valeric acids.

E. faecium = assay: Minimum inhibitory concentrations in aerobes (agar dilution)
E. coli = assay: as above; format: cell-based; conditions: Escherichia coli

CC1OC(OC2C(CO)OC(OC3C(CO)OC(O)C(O)C3O)C(O)C2O)C(O)C(O)C1NC1C=C(CO)C(O)C(O)C1O (centres unmarked) [Acarbose, acarbose]
Group mean D-Lactate ([1]; 0 hours post second challenge): 0.67 mM
Group mean L-Lactate ([1]; 0 hours post second challenge): 0.35 mM
Group mean Total-Lactate ([1]; 0 hours post second challenge): 1.02 mM
acute acidosis following carbohydrate challenge ([1]; 1.07 mg/kg BW BID 7 days pre-challenge, via cannula): prevented acute acidosis
Group mean D-Lactate ([1]; 3 hours post second challenge): 3.63 mM
Group mean L-Lactate ([1]; 3 hours post second challenge): 1.28 mM
Group mean Total-Lactate ([1]; 3 hours post second challenge): 4.91 mM
Group mean D-Lactate ([1]; 5 hours post second challenge): 10.91 mM
Group mean L-Lactate ([1]; 5 hours post second challenge): 3.08 mM
Group mean Total-Lactate ([1]; 5 hours post second challenge): 13.99 mM
Group mean D-Lactate ([1]; 7 hours post second challenge): 18.00 mM
Group mean L-Lactate ([1]; 7 hours post second challenge): 4.93 mM
Group mean Total-Lactate ([1]; 7 hours post second challenge): 22.93 mM
rumen pH ([1]; after second carbohydrate challenge, all treated cattle, 1.07 mg/kg BW BID 7 days pre-challenge, via cannula): above 5.0
lactate level in rumen fluid ([1]; after second challenge, all acarbose-treated animals (four of five controls >50 mM)): remained at zero
L-lactate production in response to the load ([1]; twice a day treatment): blocked
pH responses to a high carbohydrate load ([1]; twice a day treatment): reduced
MIC (E. faecium; E. faecium 1.1.6): >128 µg/mL
MIC (E. faecium; E. faecium 1.2.4): >128 µg/mL
MIC (E. faecium; E. faecium 1.2.6): >128 µg/mL
MIC (E. faecium; E. faecium 3.1): >128 µg/mL
MIC (E. faecium; E. faecium 4.5): >128 µg/mL
MIC (E. faecium; E. faecium 5.4): >128 µg/mL
MIC (E. faecium; E. faecium 10.1): >128 µg/mL
MIC (E. faecium; E. faecium 28.6.7): >128 µg/mL
MIC (E. faecium; E. faecium 28.7.7): >128 µg/mL
MIC (E. faecium; Enterococcus faecium): > 128 µg/mL
MIC (E. coli; ATCC10418, E. coli ATCC 10418): > 128 µg/mL
MIC (E. coli; E. coli E517): > 128 µg/mL
